Legend:
[1] = target: T1, 5-hydroxytryptamine receptor 2B (Homo sapiens, UniProt P41595); format: functional, cell-based
[2] = target: Neuronal acetylcholine receptor subunit alpha-4 (Homo sapiens, UniProt P43681)
D(3) dopamine receptor = D(3) dopamine receptor (Homo sapiens, UniProt P35462)
[3] = target: Delta-type opioid receptor (Homo sapiens, UniProt P41143)
[4] = target: T2, Beta-2 adrenergic receptor (Homo sapiens, UniProt P07550)
[5] = target: Glutamate receptor ionotropic, NMDA 1 (Rattus norvegicus, UniProt P35439)
Histamine H2 receptor = Histamine H2 receptor (Homo sapiens, UniProt P25021); format: functional, cell-based
[6] = target: T3, 5-hydroxytryptamine receptor 1A (Homo sapiens, UniProt P08908); format: functional, cell-based
T3 sequence (P08908 whole entry): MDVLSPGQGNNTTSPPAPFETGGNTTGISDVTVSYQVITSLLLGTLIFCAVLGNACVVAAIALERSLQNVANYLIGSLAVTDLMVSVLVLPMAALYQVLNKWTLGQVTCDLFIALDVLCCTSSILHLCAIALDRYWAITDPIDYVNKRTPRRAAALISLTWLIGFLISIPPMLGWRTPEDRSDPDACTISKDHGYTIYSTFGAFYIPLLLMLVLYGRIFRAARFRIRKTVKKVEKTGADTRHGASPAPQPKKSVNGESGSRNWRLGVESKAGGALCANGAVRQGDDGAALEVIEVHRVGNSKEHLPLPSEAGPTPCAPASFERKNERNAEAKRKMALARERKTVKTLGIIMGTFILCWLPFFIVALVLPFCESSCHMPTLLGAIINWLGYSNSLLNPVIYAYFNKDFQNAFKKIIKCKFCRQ

[7] = target: T1, 5-hydroxytryptamine receptor 2B
Mu-type opioid receptor [8] = target: T4, Mu-type opioid receptor (Homo sapiens, UniProt P35372)
[9] = target: T5, Alpha-1A adrenergic receptor (Homo sapiens, UniProt P35348); format: functional, cell-based
T5 sequence (P35348 whole entry): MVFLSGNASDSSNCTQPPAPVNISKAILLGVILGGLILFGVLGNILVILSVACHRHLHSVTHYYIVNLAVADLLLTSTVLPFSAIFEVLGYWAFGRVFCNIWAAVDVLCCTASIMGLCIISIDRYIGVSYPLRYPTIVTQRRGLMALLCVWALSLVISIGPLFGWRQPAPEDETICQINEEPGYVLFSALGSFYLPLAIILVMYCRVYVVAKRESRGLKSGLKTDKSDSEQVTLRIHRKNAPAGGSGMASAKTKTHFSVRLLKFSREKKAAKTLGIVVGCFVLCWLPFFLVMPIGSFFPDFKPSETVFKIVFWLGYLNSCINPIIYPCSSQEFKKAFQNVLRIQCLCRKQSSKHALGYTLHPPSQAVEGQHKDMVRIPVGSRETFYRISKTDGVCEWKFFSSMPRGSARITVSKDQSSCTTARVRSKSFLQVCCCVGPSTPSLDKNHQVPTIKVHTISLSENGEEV

Cannabinoid receptor 1 [10] = target: T6, Cannabinoid receptor 1 (Homo sapiens, UniProt P21554)
[11] = target: T5, Alpha-1A adrenergic receptor; format: functional, cell-based; remark: listed apart in the source
[12] = target: T7, Gamma-aminobutyric acid receptor subunit alpha-1 (Rattus norvegicus, UniProt P62813); format: functional
[13] = target: T8, 5-hydroxytryptamine receptor 2C (Homo sapiens, UniProt P28335)
T8 sequence (P28335 whole entry): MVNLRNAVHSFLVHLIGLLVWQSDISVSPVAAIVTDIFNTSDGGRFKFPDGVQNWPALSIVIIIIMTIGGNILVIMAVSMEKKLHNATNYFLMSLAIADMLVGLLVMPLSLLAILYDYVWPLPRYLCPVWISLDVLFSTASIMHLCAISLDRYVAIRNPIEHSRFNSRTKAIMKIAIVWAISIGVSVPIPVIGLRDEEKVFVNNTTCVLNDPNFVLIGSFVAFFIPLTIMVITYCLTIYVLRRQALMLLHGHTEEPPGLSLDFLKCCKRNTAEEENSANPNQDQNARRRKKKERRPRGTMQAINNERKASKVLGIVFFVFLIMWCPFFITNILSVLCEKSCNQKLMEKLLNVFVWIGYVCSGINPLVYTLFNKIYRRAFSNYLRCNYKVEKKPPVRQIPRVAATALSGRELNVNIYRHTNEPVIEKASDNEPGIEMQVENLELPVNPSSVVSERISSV

[14] = target: T7, Gamma-aminobutyric acid receptor subunit alpha-1
Histamine H3 receptor = Histamine H3 receptor (Homo sapiens, UniProt Q9Y5N1)
[15] = target: T5, Alpha-1A adrenergic receptor
[16] = target: Voltage-dependent L-type calcium channel subunit alpha-1C (Rattus norvegicus, UniProt P22002); format: functional
[17] = target: Gamma-aminobutyric acid receptor subunit alpha-1/alpha-2/beta-2/gamma-2 (Homo sapiens, UniProt P14867+P18507+P47869+P47870); format: functional, cell-based
[18] = target: T1, 5-hydroxytryptamine receptor 2B; format: functional, cell-based; remark: listed apart in the source
D(1A) dopamine receptor [19] = target: T9, D(1A) dopamine receptor (Homo sapiens, UniProt P21728); format: functional, cell-based
Cannabinoid receptor 1 [20] = target: T6, Cannabinoid receptor 1; format: functional, cell-based
[21] = target: T2, Beta-2 adrenergic receptor; format: functional, cell-based
[22] = target: T3, 5-hydroxytryptamine receptor 1A; format: functional, cell-based; remark: listed apart in the source
Mu-type opioid receptor [23] = target: T4, Mu-type opioid receptor; assay: biochemical; format: functional
D(1A) dopamine receptor [24] = target: T9, D(1A) dopamine receptor; format: functional, cell-based; remark: listed apart in the source
[25] = target: Kappa-type opioid receptor (Homo sapiens, UniProt P41145)
[26] = target: T10, Amine oxidase [flavin-containing] A (Homo sapiens, UniProt P21397); format: functional
T10 sequence (P21397 whole entry): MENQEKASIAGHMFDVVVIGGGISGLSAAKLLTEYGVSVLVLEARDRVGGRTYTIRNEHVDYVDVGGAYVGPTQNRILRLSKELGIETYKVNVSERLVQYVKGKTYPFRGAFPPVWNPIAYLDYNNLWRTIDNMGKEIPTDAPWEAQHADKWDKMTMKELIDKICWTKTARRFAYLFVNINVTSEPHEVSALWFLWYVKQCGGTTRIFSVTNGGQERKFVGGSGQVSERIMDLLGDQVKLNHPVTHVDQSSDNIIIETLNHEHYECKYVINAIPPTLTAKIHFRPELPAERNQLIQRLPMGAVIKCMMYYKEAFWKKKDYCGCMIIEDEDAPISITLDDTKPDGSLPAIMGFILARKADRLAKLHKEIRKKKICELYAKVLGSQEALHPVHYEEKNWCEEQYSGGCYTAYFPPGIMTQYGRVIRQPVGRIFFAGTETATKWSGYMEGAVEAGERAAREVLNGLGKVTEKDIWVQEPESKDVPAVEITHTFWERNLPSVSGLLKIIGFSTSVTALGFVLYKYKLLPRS
Note: assay procedure not described here.

T1 sequence (P41595 whole entry): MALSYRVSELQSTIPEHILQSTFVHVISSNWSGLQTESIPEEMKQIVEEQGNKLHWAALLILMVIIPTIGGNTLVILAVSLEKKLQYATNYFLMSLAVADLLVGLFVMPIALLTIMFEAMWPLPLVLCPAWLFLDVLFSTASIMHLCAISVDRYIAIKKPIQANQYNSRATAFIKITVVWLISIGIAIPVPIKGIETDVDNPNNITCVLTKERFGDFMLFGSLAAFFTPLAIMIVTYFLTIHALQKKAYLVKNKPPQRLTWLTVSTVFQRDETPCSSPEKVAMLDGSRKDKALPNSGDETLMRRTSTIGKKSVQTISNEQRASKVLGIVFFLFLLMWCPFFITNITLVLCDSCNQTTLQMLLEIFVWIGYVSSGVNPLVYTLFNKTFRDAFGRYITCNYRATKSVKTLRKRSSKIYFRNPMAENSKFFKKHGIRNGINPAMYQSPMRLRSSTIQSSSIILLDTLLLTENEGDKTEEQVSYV
T6 sequence (P21554 whole entry): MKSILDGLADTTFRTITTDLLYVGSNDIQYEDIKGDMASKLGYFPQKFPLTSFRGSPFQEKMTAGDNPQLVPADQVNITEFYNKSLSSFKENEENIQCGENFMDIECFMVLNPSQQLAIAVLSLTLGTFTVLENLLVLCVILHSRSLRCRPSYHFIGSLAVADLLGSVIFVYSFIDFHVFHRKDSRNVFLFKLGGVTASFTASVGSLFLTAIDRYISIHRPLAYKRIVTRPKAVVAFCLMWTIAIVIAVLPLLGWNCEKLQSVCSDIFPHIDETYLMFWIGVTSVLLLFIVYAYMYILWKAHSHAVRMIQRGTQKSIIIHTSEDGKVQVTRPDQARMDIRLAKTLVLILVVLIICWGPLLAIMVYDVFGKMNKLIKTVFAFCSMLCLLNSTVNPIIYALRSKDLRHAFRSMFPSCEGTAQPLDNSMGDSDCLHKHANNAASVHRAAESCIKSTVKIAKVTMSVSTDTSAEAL
T4 sequence (P35372 whole entry): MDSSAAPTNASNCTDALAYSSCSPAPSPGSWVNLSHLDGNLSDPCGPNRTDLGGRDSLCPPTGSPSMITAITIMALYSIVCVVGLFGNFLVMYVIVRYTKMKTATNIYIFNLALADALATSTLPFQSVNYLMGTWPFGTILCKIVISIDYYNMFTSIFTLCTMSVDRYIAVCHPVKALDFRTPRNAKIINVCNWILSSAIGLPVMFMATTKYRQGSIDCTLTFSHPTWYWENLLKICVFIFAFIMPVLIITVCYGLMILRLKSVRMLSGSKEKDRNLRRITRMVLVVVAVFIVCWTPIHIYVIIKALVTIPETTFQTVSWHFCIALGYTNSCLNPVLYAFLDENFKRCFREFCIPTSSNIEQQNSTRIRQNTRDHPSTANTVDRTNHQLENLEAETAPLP
T9 sequence (P21728 whole entry): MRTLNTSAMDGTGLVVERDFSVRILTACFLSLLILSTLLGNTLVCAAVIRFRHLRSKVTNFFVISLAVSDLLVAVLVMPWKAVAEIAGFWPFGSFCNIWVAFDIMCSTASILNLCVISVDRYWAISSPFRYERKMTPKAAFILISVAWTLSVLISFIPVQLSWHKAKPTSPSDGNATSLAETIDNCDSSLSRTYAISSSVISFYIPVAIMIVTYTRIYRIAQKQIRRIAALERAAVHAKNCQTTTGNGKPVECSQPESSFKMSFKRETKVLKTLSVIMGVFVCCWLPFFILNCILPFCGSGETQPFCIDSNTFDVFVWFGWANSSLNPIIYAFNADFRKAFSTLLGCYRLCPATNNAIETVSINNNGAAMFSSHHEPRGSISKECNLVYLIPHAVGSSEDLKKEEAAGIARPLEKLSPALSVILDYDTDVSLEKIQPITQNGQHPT
T2 sequence (P07550 whole entry): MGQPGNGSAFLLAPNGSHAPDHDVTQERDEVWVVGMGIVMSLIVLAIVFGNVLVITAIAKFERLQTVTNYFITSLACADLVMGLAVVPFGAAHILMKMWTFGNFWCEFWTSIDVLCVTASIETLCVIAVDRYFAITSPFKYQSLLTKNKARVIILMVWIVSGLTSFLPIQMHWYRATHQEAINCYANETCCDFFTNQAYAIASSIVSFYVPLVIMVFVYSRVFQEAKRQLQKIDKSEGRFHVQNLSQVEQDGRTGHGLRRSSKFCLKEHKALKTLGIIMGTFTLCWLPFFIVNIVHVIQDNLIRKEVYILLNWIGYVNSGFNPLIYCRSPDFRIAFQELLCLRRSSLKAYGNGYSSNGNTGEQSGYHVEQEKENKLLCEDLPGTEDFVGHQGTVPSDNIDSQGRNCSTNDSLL
T7 sequence (P62813 whole entry): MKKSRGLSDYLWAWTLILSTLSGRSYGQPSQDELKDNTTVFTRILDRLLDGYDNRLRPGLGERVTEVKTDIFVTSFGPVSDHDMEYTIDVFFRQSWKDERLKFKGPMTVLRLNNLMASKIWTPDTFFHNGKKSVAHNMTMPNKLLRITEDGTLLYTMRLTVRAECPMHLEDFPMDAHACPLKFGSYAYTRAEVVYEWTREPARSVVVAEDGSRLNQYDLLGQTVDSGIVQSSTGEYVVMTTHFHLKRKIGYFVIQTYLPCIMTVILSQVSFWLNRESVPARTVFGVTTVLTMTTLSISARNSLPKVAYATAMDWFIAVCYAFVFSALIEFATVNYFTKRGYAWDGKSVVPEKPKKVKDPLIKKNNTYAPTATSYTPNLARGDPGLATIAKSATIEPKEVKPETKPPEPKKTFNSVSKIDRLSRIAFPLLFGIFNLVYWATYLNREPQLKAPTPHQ
Chain of D(3) dopamine receptor (P35462 whole entry): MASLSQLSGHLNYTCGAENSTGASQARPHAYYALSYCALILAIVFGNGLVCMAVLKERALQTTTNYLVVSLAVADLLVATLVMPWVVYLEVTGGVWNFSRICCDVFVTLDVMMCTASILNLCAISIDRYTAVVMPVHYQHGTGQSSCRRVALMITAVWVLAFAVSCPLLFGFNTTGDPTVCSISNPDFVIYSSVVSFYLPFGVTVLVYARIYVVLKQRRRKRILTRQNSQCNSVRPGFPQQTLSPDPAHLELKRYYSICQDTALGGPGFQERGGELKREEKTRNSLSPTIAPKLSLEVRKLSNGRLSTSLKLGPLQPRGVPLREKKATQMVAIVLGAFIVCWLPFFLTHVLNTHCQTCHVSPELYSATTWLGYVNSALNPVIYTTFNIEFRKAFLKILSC
Chain of Kappa-type opioid receptor (P41145 whole entry): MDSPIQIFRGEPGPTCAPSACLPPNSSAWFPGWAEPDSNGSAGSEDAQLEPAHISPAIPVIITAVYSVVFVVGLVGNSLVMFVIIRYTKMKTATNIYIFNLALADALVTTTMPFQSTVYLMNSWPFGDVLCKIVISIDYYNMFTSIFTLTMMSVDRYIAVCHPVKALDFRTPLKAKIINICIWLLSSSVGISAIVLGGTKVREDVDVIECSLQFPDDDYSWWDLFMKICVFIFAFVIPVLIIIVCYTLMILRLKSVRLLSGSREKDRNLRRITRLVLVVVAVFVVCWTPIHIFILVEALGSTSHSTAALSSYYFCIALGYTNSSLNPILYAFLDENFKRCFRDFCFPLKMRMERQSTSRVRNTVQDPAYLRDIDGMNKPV
Chain of Histamine H2 receptor (P25021 whole entry): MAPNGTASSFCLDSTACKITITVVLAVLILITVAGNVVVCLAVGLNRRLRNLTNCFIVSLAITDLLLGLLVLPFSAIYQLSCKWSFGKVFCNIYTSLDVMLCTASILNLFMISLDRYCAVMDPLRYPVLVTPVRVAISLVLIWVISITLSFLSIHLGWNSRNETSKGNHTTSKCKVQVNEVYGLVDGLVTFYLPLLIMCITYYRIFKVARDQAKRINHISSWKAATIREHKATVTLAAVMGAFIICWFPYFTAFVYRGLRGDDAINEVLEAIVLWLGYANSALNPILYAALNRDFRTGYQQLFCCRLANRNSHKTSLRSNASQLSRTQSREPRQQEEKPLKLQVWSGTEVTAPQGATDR
Chain of Histamine H3 receptor (Q9Y5N1 whole entry): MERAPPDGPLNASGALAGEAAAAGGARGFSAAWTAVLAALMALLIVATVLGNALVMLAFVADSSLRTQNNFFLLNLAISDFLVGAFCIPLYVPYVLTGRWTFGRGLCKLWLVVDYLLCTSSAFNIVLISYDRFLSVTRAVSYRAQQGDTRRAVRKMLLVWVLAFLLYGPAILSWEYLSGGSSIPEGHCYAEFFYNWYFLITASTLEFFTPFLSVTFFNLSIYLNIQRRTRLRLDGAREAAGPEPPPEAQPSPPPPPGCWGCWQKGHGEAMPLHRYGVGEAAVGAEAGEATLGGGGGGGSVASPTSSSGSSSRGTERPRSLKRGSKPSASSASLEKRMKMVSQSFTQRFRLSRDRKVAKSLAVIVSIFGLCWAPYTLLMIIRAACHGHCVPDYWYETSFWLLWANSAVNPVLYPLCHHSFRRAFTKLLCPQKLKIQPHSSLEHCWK
Chain of Delta-type opioid receptor (P41143 whole entry): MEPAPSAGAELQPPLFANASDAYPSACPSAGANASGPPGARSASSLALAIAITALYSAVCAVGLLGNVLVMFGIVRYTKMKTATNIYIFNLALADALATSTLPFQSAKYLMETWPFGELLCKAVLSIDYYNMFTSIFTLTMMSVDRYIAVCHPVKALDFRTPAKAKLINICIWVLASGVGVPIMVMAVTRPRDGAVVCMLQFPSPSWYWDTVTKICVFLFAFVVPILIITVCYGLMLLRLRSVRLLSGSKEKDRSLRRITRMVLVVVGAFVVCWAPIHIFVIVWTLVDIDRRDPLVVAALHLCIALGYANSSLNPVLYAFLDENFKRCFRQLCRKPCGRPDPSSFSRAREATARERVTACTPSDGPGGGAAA

AC50 [1]: > 30 µM
AC50 [2]: > 30 µM
AC50 (D(3) dopamine receptor): 2830 nM
AC50 [3]: 11 µM
AC50 [4]: > 30 µM
AC50 [5]: > 10 µM
AC50 (Histamine H2 receptor): > 30 µM
AC50 [6]: > 30 µM
AC50 [7]: 137 nM
AC50 (Mu-type opioid receptor [8]): 6.26 µM
AC50 [9]: > 30 µM
AC50 (Cannabinoid receptor 1 [10]): > 10 µM
AC50 [11]: 960 nM
AC50 [12]: > 30 µM
AC50 [13]: 12.4 µM
AC50 [14]: > 10 µM
AC50 (Histamine H3 receptor): > 30 µM
AC50 [15]: 78 nM
AC50 [16]: > 10 µM
AC50 [17]: > 30 µM
AC50 [18]: 2600 nM
AC50 (D(1A) dopamine receptor [19]): 21 µM
AC50 (Cannabinoid receptor 1 [20]): > 30 µM
AC50 [21]: > 30 µM
AC50 [22]: > 30 µM
AC50 (Mu-type opioid receptor [23]): 5.3 µM
AC50 (D(1A) dopamine receptor [24]): > 30 µM
AC50 [25]: 993 nM
AC50 [26]: > 30 µM
Structure (SMILES): CN1[C@@H]2CC[C@H]1C[C@@H](OC(c1ccccc1)c1ccccc1)C2 [BENZTROPINE]
